Laboratory results taken from patent US9963452B2, “Methods, compounds, and compositions for inhibition of ROS” (AUGUSTA PHARMACEUTICALS INC., priority 2013, dated 2018).

Columns and labels:
Format in all cases: cell-based
[1] = system: LN18 glioblastoma cell line; assay: In-vitro cell survival assay (Alamar blue), LN18; conditions: Homo sapiens, LN-18, 24 h; LN18, one day after compound addition
Method: (§1) Five tumor-derived cell lines were treated with the ROS inhibitor compounds and cell survival was monitored to determine the cancer prohibition effects of the compounds. The cell lines included HeLa, a cervical cancer cell line, and four glioblastoma cell lines U138, U87, LN18, and U118. The basic protocol for the in-vitro cell survival assay is the same for all five cell lines. In particular, the cells were seeded in 96-well plates at 2-5×10^3 cells/well (cell line dependent) in culture medium. The cells were grown for 2 days before the compounds were dissolved in DMSO and added to final concentrations of 100 uM, 10 uM, or 1 uM (DMSO final concentration 0.5%). The cell culture was then assayed one day after the addition of the compounds. The assay used Alamar blue as a redox-sensitive dye that interrogates mitochondrial fitness of cells, and these assays provided a readout for cell proliferation and viability. The raw values were normalized to an average of several vehicle control wells and are presented as percent decrease in proliferation/viability, which is converted to half maximal effective concentration (EC50) values.

[2] = system: U87 glioblastoma cell line; assay: In-vitro cell survival assay (Alamar blue), U87; conditions: 24 h; U87, one day after compound addition
Method: as §1

[3] = system: U138 glioblastoma cell line; assay: In-vitro cell survival assay (Alamar blue), U138; conditions: 24 h; U138, one day after compound addition
Method: as §1

[4] = system: U118 glioblastoma cell line; assay: In-vitro cell survival assay (Alamar blue), U118; conditions: 24 h; U118, one day after compound addition
Method: as §1

[5] = system: HeLa cervical cancer cell line; assay: In-vitro cell survival assay (Alamar blue), HeLa; conditions: Homo sapiens, 24 h, one day after compound addition
Method: as §1

| SMILES | EC50 [1] [µM] | EC50 [2] [µM] | EC50 [3] [µM] | EC50 [4] [µM] | EC50 [5] [µM] |
| --- | --- | --- | --- | --- | --- |
| Nc1nc(Nc2ccc(C(=O)N3CCC[C@H]4CCCC[C@H]43)cc2)cc(Nc2ccc3ncsc3c2)n1 | 14 | 30 | > 100 | > 100 | 58 |
| Nc1nc(N)n(-c2ccccc2)/c(=N/c2ccccc2)n1 [drawing 395] | > 100 | 33 | > 100 | > 100 | > 100 |
| CCN(CC)CCNC(=O)c1cccc(Nc2nccc(Nc3ccc4ncsc4c3)n2)c1 [drawing 373] | 15 | 37 | 45 | 35 | 15 |
| O=C(NCCc1ccc(F)cc1)c1cccc(Nc2nccc(Nc3ccc4ncsc4c3)n2)c1 [drawing 372] | 6 | 10 | 8 | 9 | 5 |
| NS(=O)(=O)c1ccc(CCNC(=O)c2cc(-c3cccs3)nc3ccccc23)cc1 [drawing 358] | 25 | > 100 | > 100 | 29 | > 100 |
| Clc1nccc(Nc2cc(C3CC3)[nH]n2)n1 [drawing 435] | > 100 | 29 | 63 | 31 | 45 |
| Cc1cccc(Nc2ccnc(Nc3cccc(C(=O)N4CC=CCC4)c3)n2)c1 [drawing 371] | 13 | 17 | > 100 | 28 | 25 |
| O=C1NN=C(c2ccccc2)/C1=C1\OC(c2ccccc2)=CS1 [drawing 392] | 17 | 37 | > 100 | 27 | 23 |
| Cc1cccc(Nc2nccc(Nc3cccc(C(=O)NCCCN4CCOCC4)c3)n2)c1 [drawing 416] | 40 | 99 | 76 | > 100 | 34 |
| Nc1nc(Nc2ccc(C(=O)N3CCCCCC3)cc2)cc(Nc2ccc3ncsc3c2)n1 [drawing 409] | 14 | 25 | > 100 | > 100 | 50 |
| c1cc(Nc2cc(C3CC3)[nH]n2)nc(Nc2ccc(NCc3cc(C4OCCO4)c(C4OCCO4)s3)cc2)n1 [drawing 437] | 14 | 13 | 14 | 18 | 13 |
